Test results as given in ChEMBL document CHEMBL1133604, “1-imidazolyl(alkyl)-substituted di- and tetrahydroquinolines and analogues: syntheses and evaluation of dual inhibitors of thromboxane A(2) synthase and aromatase” (J Med Chem, 2000).
The source made the active and inactive calls. No cut-off for these calls is given here.

Tests used:
[1] = target: T1, Thromboxane-A synthase (Homo sapiens, UniProt P24557); format: tissue-based, Blood
T1 sequence (P24557 whole entry): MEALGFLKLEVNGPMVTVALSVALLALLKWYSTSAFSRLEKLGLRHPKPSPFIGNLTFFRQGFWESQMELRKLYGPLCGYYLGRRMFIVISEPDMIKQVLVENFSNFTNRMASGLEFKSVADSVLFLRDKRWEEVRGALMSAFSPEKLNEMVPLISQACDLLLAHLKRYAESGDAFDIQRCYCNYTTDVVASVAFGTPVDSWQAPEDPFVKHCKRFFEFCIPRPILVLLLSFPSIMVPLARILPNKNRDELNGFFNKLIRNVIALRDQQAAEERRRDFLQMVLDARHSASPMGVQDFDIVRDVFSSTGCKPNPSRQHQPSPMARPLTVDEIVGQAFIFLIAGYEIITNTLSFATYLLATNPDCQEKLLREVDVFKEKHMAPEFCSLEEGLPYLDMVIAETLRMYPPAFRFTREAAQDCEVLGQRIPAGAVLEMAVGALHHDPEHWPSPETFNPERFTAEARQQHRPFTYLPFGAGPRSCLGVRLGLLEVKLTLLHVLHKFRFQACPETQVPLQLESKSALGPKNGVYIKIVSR

[2] = target: T2, Steroid 17-alpha-hydroxylase/17,20 lyase (Rattus norvegicus, UniProt P11715)
T2 sequence (P11715 whole entry): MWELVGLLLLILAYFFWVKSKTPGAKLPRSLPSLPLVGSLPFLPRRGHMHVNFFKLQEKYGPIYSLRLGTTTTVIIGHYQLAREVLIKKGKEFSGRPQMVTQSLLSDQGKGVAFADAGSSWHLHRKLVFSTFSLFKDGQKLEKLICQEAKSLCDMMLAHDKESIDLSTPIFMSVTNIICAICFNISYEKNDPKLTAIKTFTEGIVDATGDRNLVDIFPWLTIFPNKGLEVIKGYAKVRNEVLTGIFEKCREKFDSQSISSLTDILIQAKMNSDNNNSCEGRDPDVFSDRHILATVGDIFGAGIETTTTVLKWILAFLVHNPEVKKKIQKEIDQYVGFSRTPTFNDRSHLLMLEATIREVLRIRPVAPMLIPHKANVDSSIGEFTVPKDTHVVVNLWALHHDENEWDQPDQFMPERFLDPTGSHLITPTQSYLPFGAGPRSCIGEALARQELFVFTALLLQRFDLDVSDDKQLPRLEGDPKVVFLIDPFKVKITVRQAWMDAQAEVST

[3] = target: T2, Steroid 17-alpha-hydroxylase/17,20 lyase; remark: listed apart in the source
[4] = cells; format: functional; conditions: Bos taurus
[5] = species: Bos taurus
[6] = species: Bos taurus; remark: listed apart in the source
[7] = target: T1, Thromboxane-A synthase

IC50 [1] | inhibition at 125 µM [3] | SMILES | other results
1700 nM |  | C(/Cn1ccnc1)=C1/CCCc2sccc21 | 
5300 nM |  | c1cc(CCn2ccnc2)c2ccsc2c1 | 
5400 nM |  | c1cc2ccc(Cn3ccnc3)cc2cn1 | 
630 nM | 49% | c1cnc2c(c1)C(CCn1ccnc1)CCC2 (stereo unspecified) | IC50 [2]: 125000 nM
3550 nM |  | C(/Cn1ccnc1)=C1/CCCc2occc21 | 
290 nM | 21% | C1=C(CCn2ccnc2)c2cccnc2CC1 | IC50 [4]: 173 nM; NI [5]: inactive; NI [6]: inactive
3400 nM | > 80% | c1ccc2c(c1)CCCC2CCn1ccnc1 (stereo unspecified) | IC50 [2]: 20000 nM
2300 nM | 59% | c1cnc2c(c1)C(CCCn1ccnc1)CCC2 (stereo unspecified) | 
1260 nM |  | C(/Cn1ccnc1)=C1\CCCc2sccc21 | 
1200 nM | 22% | c1cc(CCn2ccnc2)c2cccnc2c1 | 
680 nM | 79% | C1=C(CCCn2ccnc2)c2cccnc2CC1 | 
1010 nM |  | c1cn(CCC2CCCc3occc32)cn1 (stereo unspecified) | 
 | 14% | c1cnc2c(c1)C(n1ccnc1)CCC2 (stereo unspecified) | 
1230 nM |  | c1cn(CCC2CCCc3sccc32)cn1 (stereo unspecified) | 
4100 nM |  | C(/Cn1ccnc1)=C1\CCCc2occc21 | 
2000 nM | 11% | c1cnc2c(c1)C(Cn1ccnc1)CCC2 (stereo unspecified) | 
 |  | O=C(OC1CCCc2ncccc21)n1ccnc1 (stereo unspecified) | IC50 [7]: 1600 nM
1500 nM | 69% | C1=C(Cn2ccnc2)c2cccnc2CC1 | 
